Here are results for five molecules from ChEMBL document CHEMBL5104100, “Synthesis and Preclinical Characterization of LY3154885, a Human Dopamine D1 Receptor Positive Allosteric Modulator with an Improved Nonclinical Drug-Drug Interaction Risk Profile” (J Med Chem, 2022).

The subject of one data set is Cytochrome P450. The data set is described as follows: Drug metabolism in human hepatocytes assessed as fraction of Cyp mediated oxidative metabolism in presence of NADPH. Format: ADME, cell-based, Hepatocyte.
For data set [1], the target named is T1, CYP3A4 (Homo sapiens, UniProt P08684). In words: Induction of CYP3A4 in human hepatocytes. The format is ADME, cell-based, Hepatocyte.
T1 sequence (P08684 whole entry): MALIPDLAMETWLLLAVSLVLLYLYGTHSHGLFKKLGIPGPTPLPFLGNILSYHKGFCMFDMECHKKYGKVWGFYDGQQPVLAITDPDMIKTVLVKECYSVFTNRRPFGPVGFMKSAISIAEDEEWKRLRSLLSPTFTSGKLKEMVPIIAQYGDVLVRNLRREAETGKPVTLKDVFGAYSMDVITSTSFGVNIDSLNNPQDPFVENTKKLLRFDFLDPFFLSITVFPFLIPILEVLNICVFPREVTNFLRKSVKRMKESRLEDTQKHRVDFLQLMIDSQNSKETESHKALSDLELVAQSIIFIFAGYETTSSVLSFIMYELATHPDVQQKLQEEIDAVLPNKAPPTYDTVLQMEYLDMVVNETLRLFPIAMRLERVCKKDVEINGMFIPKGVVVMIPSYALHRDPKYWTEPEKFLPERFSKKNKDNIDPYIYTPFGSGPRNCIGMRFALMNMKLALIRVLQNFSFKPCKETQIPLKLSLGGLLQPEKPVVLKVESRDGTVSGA
The target in data set [2] is T1, CYP3A4. The data set is described as follows: Induction of CYP3A4 in human hepatocytes assessed as maximum efficacy relative to control.
The next data set addresses D(1A) dopamine receptor (Homo sapiens, UniProt P21728). The data set is described as follows: Positive allosteric modulation of human D1 receptor in HEK293 cells assessed as increase in cyclic AMP production measured after 60 mins in presence of dopamine by HTRF assay. The format is cell-based. A general note: In TR-FRET formats the signal depends on donor and acceptor labels being close together.

Data set [3] can be described thus: Solubility of compound at pH 6 by HTSA assay. As to conditions: buffer. The format is physicochemical.

≈ marks a conversion by molar mass, not a printed value.

D(1A) dopamine receptor, sequence (P21728 whole entry): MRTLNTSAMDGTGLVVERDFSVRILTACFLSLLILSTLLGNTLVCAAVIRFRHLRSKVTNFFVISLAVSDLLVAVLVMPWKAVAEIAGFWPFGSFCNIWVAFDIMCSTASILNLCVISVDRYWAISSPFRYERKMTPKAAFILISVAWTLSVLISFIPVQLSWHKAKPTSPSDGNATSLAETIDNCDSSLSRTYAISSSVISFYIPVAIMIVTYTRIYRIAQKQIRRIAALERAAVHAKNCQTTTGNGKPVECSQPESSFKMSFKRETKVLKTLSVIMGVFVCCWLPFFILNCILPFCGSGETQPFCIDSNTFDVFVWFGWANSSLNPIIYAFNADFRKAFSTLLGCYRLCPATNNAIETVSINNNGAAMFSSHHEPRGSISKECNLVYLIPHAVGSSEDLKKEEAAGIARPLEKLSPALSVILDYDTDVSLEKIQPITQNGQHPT

One may read the EC50 as the concentration giving half of the maximal effect. By Emax is commonly meant the greatest response seen or fitted, relative to the assay's reference. For `C[C@H]1c2cccc(CCC(C)(C)O)c2C[C@H](CO)N1C(=O)Cc1c(Cl)cccc1Cl`, the Fm in the data set with Cytochrome P450 is given as 0.6. This molecule also had a concentration for a half-maximal effect (EC50) on CYP3A4 [1] of 5500 nM. Further, the Emax at CYP3A4 [2] stood at 42%.
As usually defined, the solubility is the dissolved amount per volume that the medium holds. A high value points to a readily soluble substance. On to `C[C@H]1c2cccc(-c3cn[nH]c3)c2C[C@H](CO)N1C(=O)Cc1c(Cl)cccc1Cl`, for which the EC50 on D(1A) dopamine receptor amounted to 6.41 nM. Besides, in data set [3], the concentration in solution (solubility) came to 27 µg/mL (≈ 62.7 µM).
For `C[C@H]1c2cccc(-c3cnn(C4CC4)c3)c2C[C@H](CO)N1C(=O)Cc1c(Cl)cccc1Cl` the same measures were 10.3 nM and 2 µg/mL (≈ 4.25 µM).
For `CCn1cc(-c2cccc3c2C[C@H](CO)N(C(=O)Cc2c(Cl)cccc2Cl)[C@H]3C)cn1` the same measures were 15.9 nM and 12 µg/mL (≈ 26.2 µM).
`C[C@H]1c2cccc(-c3cnn(C4COC4)c3)c2C[C@H](CO)N1C(=O)Cc1c(Cl)cccc1Cl` had a solubility in data set [3] of 35 µg/mL (≈ 72 µM).
